From ChEMBL document CHEMBL1909046, “DrugMatrix in vitro pharmacology data”

What was measured:
Vasopressin V1a receptor = Vasopressin V1a receptor (Homo sapiens, UniProt P37288); type: cell membranes, Membrane; settings: hek293; note: in other assays of this panel Not Active means under 50% inhibition at 10 µM
[1] = DRUGMATRIX: Platelet-Derived Growth Factor (PDGF) radioligand binding (ligand: [125I] PDGF); type: cell-based; settings: nih3t3; Not Active = under 50% inhibition at 10 µM
[2] = DRUGMATRIX: Glutamate, Kainate radioligand binding (ligand: [3H] Kainic acid); type: cell membranes, Rattus norvegicus, Wistar, Brain, Membrane; settings: Not Active = under 50% inhibition at 10 µM
[3] = DRUGMATRIX: Sigma2 radioligand binding (ligand: [3H] Ifenprodil); type: cell membranes, Rattus norvegicus, Wistar, Brain, Membrane; settings: Not Active = under 50% inhibition at 10 µM
Nitric oxide synthase 1 = Nitric oxide synthase 1 (Rattus norvegicus, UniProt P29476); type: tissue-based, Cerebellum; note: in other assays of this panel Not Active means under 50% inhibition at 10 µM
Chain of Nitric oxide synthase 1 (P29476 whole entry): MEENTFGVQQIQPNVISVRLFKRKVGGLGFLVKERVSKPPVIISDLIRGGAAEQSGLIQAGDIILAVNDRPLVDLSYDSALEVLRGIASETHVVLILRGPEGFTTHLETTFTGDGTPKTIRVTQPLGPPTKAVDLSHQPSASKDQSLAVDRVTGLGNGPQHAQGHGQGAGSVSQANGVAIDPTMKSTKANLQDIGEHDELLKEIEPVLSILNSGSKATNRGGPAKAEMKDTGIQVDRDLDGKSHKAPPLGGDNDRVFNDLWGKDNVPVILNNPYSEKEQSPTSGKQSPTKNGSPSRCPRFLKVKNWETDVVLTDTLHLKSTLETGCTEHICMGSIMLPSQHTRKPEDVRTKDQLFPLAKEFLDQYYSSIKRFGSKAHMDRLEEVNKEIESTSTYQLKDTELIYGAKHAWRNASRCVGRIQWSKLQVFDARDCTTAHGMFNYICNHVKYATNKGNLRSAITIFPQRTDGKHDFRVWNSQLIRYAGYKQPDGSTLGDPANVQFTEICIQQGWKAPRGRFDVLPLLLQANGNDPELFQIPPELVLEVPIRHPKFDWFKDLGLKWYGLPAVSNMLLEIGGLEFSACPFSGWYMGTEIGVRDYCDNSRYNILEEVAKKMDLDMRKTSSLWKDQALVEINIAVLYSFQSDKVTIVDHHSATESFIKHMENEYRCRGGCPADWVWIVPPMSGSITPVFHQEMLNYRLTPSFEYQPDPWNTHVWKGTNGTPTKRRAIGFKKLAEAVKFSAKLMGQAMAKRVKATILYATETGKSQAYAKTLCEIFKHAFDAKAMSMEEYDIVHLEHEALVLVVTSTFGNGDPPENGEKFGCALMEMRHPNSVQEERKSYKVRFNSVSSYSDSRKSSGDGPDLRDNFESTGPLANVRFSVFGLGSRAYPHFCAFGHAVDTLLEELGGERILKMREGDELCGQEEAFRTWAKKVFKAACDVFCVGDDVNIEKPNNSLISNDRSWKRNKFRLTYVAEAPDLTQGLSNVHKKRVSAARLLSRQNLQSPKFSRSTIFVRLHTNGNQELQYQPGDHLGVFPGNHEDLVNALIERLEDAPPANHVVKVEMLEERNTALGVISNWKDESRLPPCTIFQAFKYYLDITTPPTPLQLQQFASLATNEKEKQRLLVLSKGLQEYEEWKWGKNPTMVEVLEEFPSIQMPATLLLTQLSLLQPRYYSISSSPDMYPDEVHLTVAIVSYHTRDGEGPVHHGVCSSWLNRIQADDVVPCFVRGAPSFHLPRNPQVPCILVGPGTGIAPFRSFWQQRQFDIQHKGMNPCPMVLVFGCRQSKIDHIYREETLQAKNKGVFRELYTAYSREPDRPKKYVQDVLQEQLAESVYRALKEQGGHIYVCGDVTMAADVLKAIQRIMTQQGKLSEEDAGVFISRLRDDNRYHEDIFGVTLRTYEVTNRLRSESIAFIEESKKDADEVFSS

Estrogen receptor beta = Estrogen receptor beta (Homo sapiens, UniProt Q92731); settings: sf9; note: in other assays of this panel Not Active means under 50% inhibition at 10 µM
Chain of Estrogen receptor beta (Q92731 whole entry): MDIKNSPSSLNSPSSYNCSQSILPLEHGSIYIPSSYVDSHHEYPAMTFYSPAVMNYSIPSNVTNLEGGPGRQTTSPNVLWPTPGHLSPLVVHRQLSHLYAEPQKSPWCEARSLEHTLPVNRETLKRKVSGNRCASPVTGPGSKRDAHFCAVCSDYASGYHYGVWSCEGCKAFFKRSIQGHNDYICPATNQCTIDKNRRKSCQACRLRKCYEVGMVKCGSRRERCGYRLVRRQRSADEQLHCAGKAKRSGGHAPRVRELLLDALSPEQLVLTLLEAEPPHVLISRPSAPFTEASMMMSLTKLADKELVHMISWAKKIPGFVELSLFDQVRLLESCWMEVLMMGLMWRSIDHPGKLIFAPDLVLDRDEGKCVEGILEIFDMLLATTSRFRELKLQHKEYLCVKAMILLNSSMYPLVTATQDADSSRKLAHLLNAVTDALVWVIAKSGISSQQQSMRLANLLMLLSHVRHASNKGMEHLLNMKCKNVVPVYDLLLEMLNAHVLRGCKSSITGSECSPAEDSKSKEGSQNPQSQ

[4] = DRUGMATRIX: Interleukin IL-1 radioligand binding (ligand: [125I] interleukin 1beta); type: cell membranes, Membrane; settings: nih3t3; Not Active = under 50% inhibition at 10 µM
[5] = DRUGMATRIX: Sodium/nucleoside co-transporter radioligand binding (ligand: nitrobenzylthioinosine); type: cell membranes, Cavia porcellus, Dunkin-Hartley, Cerebral cortex, Membrane; settings: Not Active = under 50% inhibition at 10 µM
Cytochrome P450 2D6 = Cytochrome P450 2D6 (Homo sapiens, UniProt P10635); settings: bti-tn-5b1-4; note: in other assays of this panel Not Active means under 50% inhibition at 10 µM
Chain of Cytochrome P450 2D6 (P10635 whole entry): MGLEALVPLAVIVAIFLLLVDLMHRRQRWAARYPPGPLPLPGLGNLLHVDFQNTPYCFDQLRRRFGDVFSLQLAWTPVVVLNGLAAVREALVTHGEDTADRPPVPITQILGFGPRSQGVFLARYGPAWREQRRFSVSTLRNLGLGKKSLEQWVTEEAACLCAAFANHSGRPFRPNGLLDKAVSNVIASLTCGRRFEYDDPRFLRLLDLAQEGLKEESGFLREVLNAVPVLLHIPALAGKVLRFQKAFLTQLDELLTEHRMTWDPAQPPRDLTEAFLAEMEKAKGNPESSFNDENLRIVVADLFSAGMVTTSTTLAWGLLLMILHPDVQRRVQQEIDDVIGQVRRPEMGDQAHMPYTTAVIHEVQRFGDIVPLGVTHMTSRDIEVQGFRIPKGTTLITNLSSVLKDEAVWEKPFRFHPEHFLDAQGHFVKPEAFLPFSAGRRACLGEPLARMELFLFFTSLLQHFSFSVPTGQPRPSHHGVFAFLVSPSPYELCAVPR

Chain of Vasopressin V1a receptor (P37288 whole entry): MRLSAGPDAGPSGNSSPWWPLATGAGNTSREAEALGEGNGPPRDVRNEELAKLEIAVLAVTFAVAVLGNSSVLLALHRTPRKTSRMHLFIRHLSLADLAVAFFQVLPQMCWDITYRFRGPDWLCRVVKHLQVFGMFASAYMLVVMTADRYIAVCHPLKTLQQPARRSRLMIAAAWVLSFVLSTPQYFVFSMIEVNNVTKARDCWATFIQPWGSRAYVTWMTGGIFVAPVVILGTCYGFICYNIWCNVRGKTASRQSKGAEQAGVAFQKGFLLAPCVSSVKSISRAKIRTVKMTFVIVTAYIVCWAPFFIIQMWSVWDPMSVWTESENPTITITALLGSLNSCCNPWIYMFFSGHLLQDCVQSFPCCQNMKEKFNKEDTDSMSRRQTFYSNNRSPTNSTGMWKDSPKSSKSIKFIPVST

CO[C@H]1O[C@@H]2O[C@@]3(C)CC[C@H]4[C@H](C)CC[C@@H]([C@H]1C)[C@@]24OO3
Not Active: IC50 (Vasopressin V1a receptor) | IC50 [1] | Ki [1] | IC50 [2] | Ki [2] | IC50 [3] | Ki [3] | IC50 (Nitric oxide synthase 1) | IC50 (Estrogen receptor beta) | IC50 [4] | Ki [4] | IC50 [5] | Ki [5] | IC50 (Cytochrome P450 2D6) | Ki (Cytochrome P450 2D6)

CC(C)Cn1cnc2c(N)nc3ccccc3c21 [IMIQUIMOD]
Not Active: IC50 (Vasopressin V1a receptor) | IC50 [1] | Ki [1] | IC50 [2] | Ki [2] | IC50 [3] | Ki [3] | IC50 (Nitric oxide synthase 1) | IC50 (Estrogen receptor beta) | IC50 [4] | Ki [4] | IC50 [5] | Ki [5] | IC50 (Cytochrome P450 2D6) | Ki (Cytochrome P450 2D6)

COc1cc(NC(C)CCCN)c2ncccc2c1 (stereo not drawn) [PRIMAQUINE]
Not Active: IC50 (Vasopressin V1a receptor) | IC50 [1] | Ki [1] | IC50 [2] | Ki [2] | IC50 [3] | Ki [3] | IC50 (Nitric oxide synthase 1) | IC50 (Estrogen receptor beta) | IC50 [4] | Ki [4] | IC50 [5] | Ki [5] | IC50 (Cytochrome P450 2D6) | Ki (Cytochrome P450 2D6)

O=C(O)COC(=O)Cc1ccccc1Nc1c(Cl)cccc1Cl [ACECLOFENAC]
Not Active: IC50 (Vasopressin V1a receptor) | IC50 [1] | Ki [1] | IC50 [2] | Ki [2] | IC50 [3] | Ki [3] | IC50 (Nitric oxide synthase 1) | IC50 (Estrogen receptor beta) | IC50 [4] | Ki [4] | IC50 [5] | Ki [5] | IC50 (Cytochrome P450 2D6) | Ki (Cytochrome P450 2D6)

C#C[C@]1(O)CC[C@H]2[C@@H]3CCC4=CC(=O)CC[C@@H]4[C@H]3CC[C@@]21C [NORETHINDRONE]
Not Active: IC50 (Vasopressin V1a receptor) | IC50 [1] | Ki [1] | IC50 [2] | Ki [2] | IC50 [3] | Ki [3] | IC50 (Nitric oxide synthase 1) | IC50 (Estrogen receptor beta) | IC50 [4] | Ki [4] | IC50 [5] | Ki [5] | IC50 (Cytochrome P450 2D6) | Ki (Cytochrome P450 2D6)

CC(C)(C#N)c1cc(Cn2cncn2)cc(C(C)(C)C#N)c1 [ANASTROZOLE]
Not Active: IC50 (Vasopressin V1a receptor) | IC50 [1] | Ki [1] | IC50 [2] | Ki [2] | IC50 [3] | Ki [3] | IC50 (Nitric oxide synthase 1) | IC50 (Estrogen receptor beta) | IC50 [4] | Ki [4] | IC50 [5] | Ki [5] | IC50 (Cytochrome P450 2D6) | Ki (Cytochrome P450 2D6)

O=C(Nc1ccc(Cl)c(Cl)c1)c1cc(Cl)cc(Cl)c1O [3,3',4',5-TETRACHLOROSALICYLANILIDE]
Not Active: IC50 (Vasopressin V1a receptor) | IC50 [1] | Ki [1] | IC50 [2] | Ki [2] | IC50 [3] | Ki [3] | IC50 (Nitric oxide synthase 1) | IC50 (Estrogen receptor beta) | IC50 [4] | Ki [4] | IC50 [5] | Ki [5] | IC50 (Cytochrome P450 2D6) | Ki (Cytochrome P450 2D6)

O=C(O)CO [GLYCOLIC ACID]
Not Active: IC50 (Vasopressin V1a receptor) | IC50 [1] | Ki [1] | IC50 [2] | Ki [2] | IC50 [3] | Ki [3] | IC50 (Nitric oxide synthase 1) | IC50 (Estrogen receptor beta) | IC50 [4] | Ki [4] | IC50 [5] | Ki [5] | IC50 (Cytochrome P450 2D6) | Ki (Cytochrome P450 2D6)

COC(=O)C[C@](O)(CCC(C)(C)O)C(=O)O[C@@H]1C(OC)=C[C@]23CCCN2CCc2cc4c(cc2[C@H]13)OCO4 [HARRINGTONINE]
Not Active: IC50 (Vasopressin V1a receptor) | IC50 [1] | Ki [1] | IC50 [2] | Ki [2] | IC50 [3] | Ki [3] | IC50 (Nitric oxide synthase 1) | IC50 (Estrogen receptor beta) | IC50 [4] | Ki [4] | IC50 [5] | Ki [5] | IC50 (Cytochrome P450 2D6) | Ki (Cytochrome P450 2D6)

CC(C)(c1ccc(O)cc1)c1ccc(O)cc1 [BISPHENOL A]
Not Active: IC50 (Vasopressin V1a receptor) | IC50 [1] | Ki [1] | IC50 [2] | Ki [2] | IC50 [3] | Ki [3] | IC50 (Nitric oxide synthase 1) | IC50 (Estrogen receptor beta) | IC50 [4] | Ki [4] | IC50 [5] | Ki [5] | IC50 (Cytochrome P450 2D6) | Ki (Cytochrome P450 2D6)

C[C@]12CC[C@@H](O)C[C@@H]1CC[C@@H]1[C@@H]2CC[C@]2(C)C(=O)CC[C@@H]12 [ANDROSTERONE]
Not Active: IC50 (Vasopressin V1a receptor) | IC50 [1] | Ki [1] | IC50 [2] | Ki [2] | IC50 [3] | Ki [3] | IC50 (Nitric oxide synthase 1) | IC50 (Estrogen receptor beta) | IC50 [4] | Ki [4] | IC50 [5] | Ki [5] | IC50 (Cytochrome P450 2D6) | Ki (Cytochrome P450 2D6)

COc1ccc(Cl)cc1C(=O)NCCc1ccc(S(=O)(=O)NC(=O)NC2CCCCC2)cc1 [GLYBURIDE]
Not Active: IC50 (Vasopressin V1a receptor) | IC50 [1] | Ki [1] | IC50 [2] | Ki [2] | IC50 [3] | Ki [3] | IC50 (Nitric oxide synthase 1) | IC50 (Estrogen receptor beta) | IC50 [4] | Ki [4] | IC50 [5] | Ki [5] | IC50 (Cytochrome P450 2D6) | Ki (Cytochrome P450 2D6)

CC(CN1c2ccccc2Sc2ccccc21)N(C)C (stereo not drawn) [PROMETHAZINE]
Not Active: IC50 (Vasopressin V1a receptor) | IC50 [1] | Ki [1] | IC50 [2] | Ki [2] | IC50 [3] | Ki [3] | IC50 (Nitric oxide synthase 1) | IC50 (Estrogen receptor beta) | IC50 [4] | Ki [4] | IC50 [5] | Ki [5] | IC50 (Cytochrome P450 2D6) | Ki (Cytochrome P450 2D6)

C[N+](C)(C)CCOP(=O)([O-])OC[C@H](O)CO
Not Active: IC50 (Vasopressin V1a receptor) | IC50 [1] | Ki [1] | IC50 [2] | Ki [2] | IC50 [3] | Ki [3] | IC50 (Nitric oxide synthase 1) | IC50 (Estrogen receptor beta) | IC50 [4] | Ki [4] | IC50 [5] | Ki [5] | IC50 (Cytochrome P450 2D6) | Ki (Cytochrome P450 2D6)

NCC(CC(=O)O)c1ccc(Cl)cc1 (stereo not drawn) [BACLOFEN]
Not Active: IC50 (Vasopressin V1a receptor) | IC50 [1] | Ki [1] | IC50 [2] | Ki [2] | IC50 [3] | Ki [3] | IC50 (Nitric oxide synthase 1) | IC50 (Estrogen receptor beta) | IC50 [4] | Ki [4] | IC50 [5] | Ki [5] | IC50 (Cytochrome P450 2D6) | Ki (Cytochrome P450 2D6)

CC12CCC(CC1=O)C2(C)C (stereo not drawn) [CAMPHOR]
Not Active: IC50 (Vasopressin V1a receptor) | IC50 [1] | Ki [1] | IC50 [2] | Ki [2] | IC50 [3] | Ki [3] | IC50 (Nitric oxide synthase 1) | IC50 (Estrogen receptor beta) | IC50 [4] | Ki [4] | IC50 [5] | Ki [5] | IC50 (Cytochrome P450 2D6) | Ki (Cytochrome P450 2D6)

POVIDONE
Not Active: IC50 (Vasopressin V1a receptor) | Ki (Vasopressin V1a receptor) | IC50 [1] | Ki [1] | IC50 [2] | Ki [2] | IC50 [3] | Ki [3] | IC50 (Nitric oxide synthase 1) | Ki (Nitric oxide synthase 1) | IC50 (Estrogen receptor beta) | Ki (Estrogen receptor beta) | IC50 [4] | Ki [4] | IC50 [5] | Ki [5] | IC50 (Cytochrome P450 2D6) | Ki (Cytochrome P450 2D6)

Cc1ccnc2c1NC(=O)c1cccnc1N2C1CC1 [NEVIRAPINE]
Not Active: IC50 (Vasopressin V1a receptor) | IC50 [1] | Ki [1] | IC50 [2] | Ki [2] | IC50 [3] | Ki [3] | IC50 (Nitric oxide synthase 1) | IC50 (Estrogen receptor beta) | IC50 [4] | Ki [4] | IC50 [5] | Ki [5] | IC50 (Cytochrome P450 2D6) | Ki (Cytochrome P450 2D6)

CCN1CCN(C(=O)N[C@@H](C(=O)N[C@@H]2C(=O)N3[C@@H]2SC(C)(C)[C@@H]3C(=O)O)c2ccccc2)C(=O)C1=O [PIPERACILLIN]
Not Active: IC50 (Vasopressin V1a receptor) | IC50 [1] | Ki [1] | IC50 [2] | Ki [2] | IC50 [3] | Ki [3] | IC50 (Nitric oxide synthase 1) | IC50 (Estrogen receptor beta) | IC50 [4] | Ki [4] | IC50 [5] | Ki [5] | IC50 (Cytochrome P450 2D6) | Ki (Cytochrome P450 2D6)

CC[C@H]1OC(=O)[C@H](C)[C@@H](O[C@H]2C[C@@](C)(OC)[C@@H](O)[C@H](C)O2)[C@H](C)[C@@H](O[C@@H]2O[C@H](C)C[C@H](N(C)C)[C@H]2O)[C@](C)(O)C[C@@H](C)C(=O)[C@H](C)[C@@H](O)[C@]1(C)O [ERYTHROMYCIN]
Not Active: IC50 (Vasopressin V1a receptor) | IC50 [1] | Ki [1] | IC50 [2] | Ki [2] | IC50 [3] | Ki [3] | IC50 (Nitric oxide synthase 1) | IC50 (Estrogen receptor beta) | IC50 [4] | Ki [4] | IC50 [5] | Ki [5] | IC50 (Cytochrome P450 2D6) | Ki (Cytochrome P450 2D6)
